In patent US10392389B2, “Heterocyclic compounds for the inhibition of PASK” (BioEnergenix, LLC, priority 2012, dated 2019):

biological target: T1, PASK (Invitrogen) (Homo sapiens, UniProt Q96RG2); experiment: PAS Kinase FRET Assay; type: biochemical; settings: PAS kinase TR-FRET assay (665 nm/615 nm); read-out: IC50 Kinase Domain
T1 construct: IC50 Kinase Domain; purchased Invitrogen
Text: Biochemical Assay for hPASK Activity
The aim of the FRET assay is to determine the inhibition potential of test compounds on targeted kinase. This assay platform provides a homogenous screening method for measuring kinase activity by quantitating the amount of phospho-substrate in solution following a kinase reaction.
In the presence of kinase and ATP, the Ulight-peptide is phosphorylated and captured by an anti-phospho-substrate antibody, which brings the Eu chelate donor and Ulight acceptor dyes into close proximity. Upon excitation at 340 nm, the Eu chelate transfers its energy to the Ulight dye, resulting in a fluorescent light emission at 665 nm.
Titration of kinase at 1 mM ATP was achieved via the following protocol. After making serial three-fold dilutions of PASK (Invitrogen) in reaction buffer across the plate; 5 μl of kinase dilution and 5 μl substrate/ATP mix were added to the wells of the white Optiplate-384 (PerkinElmer). The contents of the plate were and incubated at RT for 1 h. The reaction was stopped by adding 5 μl of stop solution to each test well followed by mixing and incubation at RT for 10 minutes. 5 μl of detection mix (detection antibody diluted in detection buffer) was added; the contents of the plate were mixed and then incubated in the dark for 1 hour at RT. The signal was recorded at TR-FRET mode (665 nm/615 nm). The results were graphed to calculate the EC50.
Titration of ATP at the EC50 concentration of kinase to determine ATP Km,app. was performed using the following method. After making serial dilutions of ATP (Invitrogen), 5 μl of ATP dilution and 5 μl substrate/kinase mix were added to the wells of the white Optiplate-384 (PerkinElmer). The contents of the plate were and incubated at RT for 1 h. The reaction was stopped by adding 5 μl of stop solution to each test well followed by mixing and incubation at RT for 10 minutes. 5 μl of detection mix (detection antibody diluted in detection buffer) was added; the contents of the plate were mixed and then incubated in the dark for 1 hour at RT. The signal was recorded at TR-FRET mode (665 nm/615 nm). The results were graphed to calculate the EC50 as the ATP Km,app.
Compound screening was done via the following method. 10 mM stock solution of test compound in DMSO was prepared by dissolving test compound in DMSO at RT for 1 hour, and then sonicating at 100% output for 8 minutes. If compound is not soluble under this condition, it was diluted to 3 mM. Kinase reaction buffer was prepared containing 10 mM MgCl2, 50 mM HEPES, 1 mM EGTA, 0.01% TWEEN-20, 2 mM DTT. Serial dilutions of the test compounds were prepared at 4× final assay concentrations using Freedom EVO200® dispensing system as follows: 12×10^−5 M, 4×10^−5 M, 1.33×10^−5 M, 4.44×10^−6 M, 1.48×10^−6 M, 4.92×10^−7 M, 1.65×10^−7 M, […], 1.82×10^−8M, 6.09×10^−9, 2.03×10^−9 M. Test compounds (2.5 μl at 4× the final assay concentration) was added to wells using Freedom EVO200® dispensing system. As a positive control, 2.5 μl of positive compound was added to assay wells, and 2.5 μl of DMSO to assay wells as vehicle control. Kinase solution was prepared in reaction buffer at 2× final assay concentration. Kinase solution (5 μl) was added to each well of the assay plate. The substrate and ATP solution was prepared in kinase reaction buffer at 4× final assay concentration. The kinase reaction was started by adding 2.5 μl of substrate+ATP mix solution to each well of the assay plate. The plate is mixed on a plate shaker; then covered and allowed to react for 2 hours in the dark at 25° C. without shaking. The reaction was stopped by adding 5 μl of stop solution to each test well followed by mixing and incubation at RT for 10 minutes in the dark. 5 μl of detection mix (detection antibody diluted in detection buffer) was added; the contents of the plate were mixed and then incubated in the dark for 1 hour at RT. The signal was recorded at TR-FRET mode (665 nm/615 nm).

T1 sequence (Q96RG2 999-1251 limits assumed): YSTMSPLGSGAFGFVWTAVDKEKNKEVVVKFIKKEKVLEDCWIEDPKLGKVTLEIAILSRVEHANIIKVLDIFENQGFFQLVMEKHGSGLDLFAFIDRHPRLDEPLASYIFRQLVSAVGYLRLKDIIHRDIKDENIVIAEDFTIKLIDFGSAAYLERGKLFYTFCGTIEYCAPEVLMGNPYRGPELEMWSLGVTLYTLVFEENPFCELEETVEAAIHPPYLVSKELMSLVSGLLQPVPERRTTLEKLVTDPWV

IC50, ≤ 10 µM:
CCc1nn2c(=O)cc(-c3ccc4c(cnn4CC)c3)[nH]c2c1-c1nc(C)no1 [Example 114, 2-ethyl-5-(1-ethyl-1H-indazol-5-yl)-3-(3-methyl-1,2,4-oxadiazol-5-yl)pyrazolo[1,5-a]pyrimidin-7(4H)-one]
CCn1ncc2ccc(-c3cc(=O)n4ncc(-c5ncc(C)o5)c4[nH]3)cc21 [Example 112, 5-(1-ethyl-1H-indazol-6-yl)-3-(5-methyloxazol-2-yl)pyrazolo[1,5-a]pyrimidin-7(4H)-one]
CCn1nc(C)c2cc(-c3cc(=O)n4ncc(-c5ncc(C)o5)c4[nH]3)ccc21 [Example 105, 5-(1-Ethyl-3-methyl-1H-indazol-5-yl)-3-(5-methyloxazol-2-yl)pyrazolo[1,5-a]pyrimidin-7(4H)-one]
CCc1cnc(-c2cnn3c(=O)cc(-c4ccc5[nH]nnc5c4)[nH]c23)o1 [Example 6, 5-(1H-1,2,3-benzotriazol-5-yl)-3-(5-ethyl-1,3-oxazol-2-yl)-4H,7H-pyrazolo[1,5-a]pyrimidin-7-one]
CCOc1cc(-c2cc(=O)n3ncc(-c4ccnn4C)c3[nH]2)ccc1F [Example 78, 5-(3-ethoxy-4-fluorophenyl)-3-(1-methyl-1H-pyrazol-5-yl)pyrazolo[1,5-a]pyrimidin-7(4H)-one]
O=c1cc(-c2ccc(Cl)c(Cl)c2)[nH]c2c(-c3noc4ccccc34)cnn12 [Example 60, 3-(benzo[d]isoxazol-3-yl)-5-(3,4-dichlorophenyl)pyrazolo[1,5-a]pyrimidin-7(4H)-one]
O=c1cc(-c2ccc3occc3c2)[nH]c2c(-c3nccs3)cnn12 [Example 44, 5-(benzofuran-5-yl)-3-(thiazol-2-yl)pyrazolo[1,5-a]pyrimidin-7(4H)-one]
CCn1ncc2cc(-c3cc(=O)n4ncc(-c5nc(C)cs5)c4[nH]3)ccc21 [Example 25, 5-(1-ethyl-1H-indazol-5-yl)-3-(4-methyl-1,3-thiazol-2-yl)-4H,7H-pyrazolo[1,5-a]pyrimidin-7-one]
Cc1cnc(-c2cnn3c(=O)cc(-c4ccc(Cl)cc4)[nH]c23)s1 [Example 106, 5-(4-Chlorophenyl)-3-(5-methylthiazol-2-yl)pyrazolo[1,5-a]pyrimidin-7(4H)-one]
CCn1ncc2cc(-c3cc(=O)n4ncc(-c5nc6ccccc6o5)c4[nH]3)ccc21 [Example 33, 3-(benzo[d]oxazol-2-yl)-5-(1-ethyl-1H-indazol-5-yl)pyrazolo[1,5-a]pyrimidin-7(4H)-one]
CC(C)Oc1cc(-c2cc(=O)n3ncc(-c4ccnn4C)c3[nH]2)ccc1Cl [Example 76, 5-(4-chloro-3-isopropoxyphenyl)-3-(1-methyl-1H-pyrazol-5-yl)pyrazolo[1,5-a]pyrimidin-7(4H)-one]
COc1cc(-c2cc(=O)n3ncc(-c4noc5ccccc45)c3[nH]2)ccc1Cl [Example 50, 3-(benzo[d]isoxazol-3-yl)-5-(4-chloro-3-methoxyphenyl)pyrazolo[1,5-a]pyrimidin-7(4H)-one]
CCNC(=O)Cc1cnn2c(=O)cc(-c3ccc(Cl)c(OC)c3)[nH]c12 [Example 80, 2-[5-(4-chloro-3-methoxyphenyl)-7-oxo-4H,7H-pyrazolo[1,5-a]pyrimidin-3-yl]-N-ethylacetamide]
Cc1cnc(-c2cnn3c(=O)cc(-c4ccc5c(cnn5C)c4)[nH]c23)o1 [Example 107, 5-(1-Methyl-1H-indazol-5-yl)-3-(5-methyloxazol-2-yl)pyrazolo[1,5-a]pyrimidin-7(4H)-one]
CCn1ncc2ccc(-c3cc(=O)n4ncc(-c5nc(C)no5)c4[nH]3)cc21 [Example 111, 5-(1-Ethyl-1H-indazol-6-yl)-3-(3-methyl-1,2,4-oxadiazol-5-yl)pyrazolo[1,5-a]pyrimidin-7(4H)-one]
Cc1noc(-c2cnn3c(=O)cc(-c4ccc5occc5c4)[nH]c23)n1 [Example 62, 5-(benzofuran-5-yl)-3-(3-methyl-1,2,4-oxadiazol-5-yl)-4H,7H-pyrazolo[1,5-a]pyrimidin-7-one]
